Here are results for one molecule from paper PMC5218480 (PLoS ONE, 2017).

For this experiment, the system named is MV-4-11 cells. In words: Gene expression microarray analysis (Affymetrix PrimeView) and GSEA. Format: cell-based, human. Also on record: RFU PODN (11730768_x_at) / Fold change /veh PODN (11730768_x_at) / RFU LINC00158 (11744669_a_at) / Fold change /veh LINC00158 (11744669_a_at) / RFU DUSP10 (11751237_a_at) / Fold change /veh DUSP10 (11751237_a_at) / RFU ID3 (11757404_x_at) / Fold change /veh ID3 (11757404_x_at) / RFU PLEKHG5 (11737974_s_at) / Fold change /veh PLEKHG5 (11737974_s_at) / RFU LRRC4B (11730491_at) / Fold change /veh LRRC4B (11730491_at) / RFU GIMAP4 (11747438_a_at) / Fold change /veh GIMAP4 (11747438_a_at) / RFU KRT8 (11758183_x_at) / Fold change /veh KRT8 (11758183_x_at) / RFU CNN1 (11734310_a_at) / Fold change /veh CNN1 (11734310_a_at) / RFU VPS37D (11726825_at) / Fold change /veh VPS37D (11726825_at) / RFU C10orf10 (11716522_x_at) / Fold change /veh C10orf10 (11716522_x_at) / RFU KIR2DL2 /// KIR2DL4 /// KIR2DL5A /// KIR2DL5B /// KIR2DS1 /// KIR2DS2 /// KIR2DS3 /// KIR2DS4 /// KIR3DL3 /// KIR3DL3 /// KIR3DS1 (11738374_at) / Fold change /veh KIR2DL2 /// KIR2DL4 /// KIR2DL5A /// KIR2DL5B /// KIR2DS1 /// KIR2DS2 /// KIR2DS3 /// KIR2DS4 /// KIR3DL3 /// KIR3DL3 /// KIR3DS1 (11738374_at) / RFU C1QL1 (11718748_at) / Fold change /veh C1QL1 (11718748_at) / RFU TMPRSS4 (11747572_a_at) / Fold change /veh TMPRSS4 (11747572_a_at) / RFU HAMP (11756126_x_at) / Fold change /veh HAMP (11756126_x_at) / RFU RNFT2 (11725882_a_at) / Fold change /veh RNFT2 (11725882_a_at) / RFU NR4A2 (11747474_a_at) / Fold change /veh NR4A2 (11747474_a_at) / RFU ABCC12 (11746883_a_at) / Fold change /veh ABCC12 (11746883_a_at) / RFU TMEM136 (11760407_x_at) / Fold change /veh TMEM136 (11760407_x_at) / RFU CLDN22 /// WWC2 (11732394_at) / Fold change /veh CLDN22 /// WWC2 (11732394_at) / RFU HLA-DPB1 (11760878_x_at) / Fold change /veh HLA-DPB1 (11760878_x_at) / RFU SPINT1 (11716480_a_at) / Fold change /veh SPINT1 (11716480_a_at) / RFU GAP43 (11754022_s_at) / Fold change /veh GAP43 (11754022_s_at) / RFU A4GNT (11735810_at) / Fold change /veh A4GNT (11735810_at) / RFU PRB3 (11715151_x_at) / Fold change /veh PRB3 (11715151_x_at) / RFU TUBB4B (11761932_at) / Fold change /veh TUBB4B (11761932_at) / RFU CAPN14 (11732068_a_at) / Fold change /veh CAPN14 (11732068_a_at) / RFU TMCC2 (11721928_a_at) / Fold change /veh TMCC2 (11721928_a_at) / RFU IRGQ (11745062_a_at) / Fold change /veh IRGQ (11745062_a_at) / RFU FAM174B (11720279_a_at) / Fold change /veh FAM174B (11720279_a_at) / RFU TMPRSS4 (11748680_a_at) / Fold change /veh TMPRSS4 (11748680_a_at) / RFU FAM212B (11763350_a_at) / Fold change /veh FAM212B (11763350_a_at) / RFU PLEKHG5 (11743358_a_at) / Fold change /veh PLEKHG5 (11743358_a_at) / RFU ZSCAN30 (11745921_a_at) / Fold change /veh ZSCAN30 (11745921_a_at) / RFU CMKLR1 (11741424_a_at) / Fold change /veh CMKLR1 (11741424_a_at) / RFU LOC101060620 /// MAPK8IP1 (11723275_at) / Fold change /veh LOC101060620 /// MAPK8IP1 (11723275_at) / RFU SPTSSB (11747773_x_at) / Fold change /veh SPTSSB (11747773_x_at) / RFU PRSS12 (11739890_at) / Fold change /veh PRSS12 (11739890_at) / RFU BIN1 (11741810_x_at) / Fold change /veh BIN1 (11741810_x_at) / RFU WNT11 (11732464_a_at) / Fold change /veh WNT11 (11732464_a_at) / RFU C10orf10 (11716521_a_at) / Fold change /veh C10orf10 (11716521_a_at) / RFU C5orf56 (11738089_at) / Fold change /veh C5orf56 (11738089_at) / RFU CYB561 (11721691_x_at) / Fold change /veh CYB561 (11721691_x_at) / RFU ANKRD19P (11752326_a_at) / Fold change /veh ANKRD19P (11752326_a_at) / RFU OR2T12 /// OR2T33 /// OR2T8 (11738714_s_at) / Fold change /veh OR2T12 /// OR2T33 /// OR2T8 (11738714_s_at) / RFU VCAN (11748164_a_at) / Fold change /veh VCAN (11748164_a_at) / RFU JSRP1 (11732532_at) / Fold change /veh JSRP1 (11732532_at) / RFU KRTAP10-11 (11738290_x_at) / Fold change /veh KRTAP10-11 (11738290_x_at) / RFU MYO3A (11730013_a_at) / Fold change /veh MYO3A (11730013_a_at) / RFU EBF3 (11725865_a_at) / Fold change /veh EBF3 (11725865_a_at) / RFU CAMK2N1 (11719241_x_at) / Fold change /veh CAMK2N1 (11719241_x_at) / RFU C5orf56 (11738088_a_at) / Fold change /veh C5orf56 (11738088_a_at) / RFU OLFML3 (11715873_a_at) / Fold change /veh OLFML3 (11715873_a_at) / RFU LOC100653217 /// NTM (11731650_a_at) / Fold change /veh LOC100653217 /// NTM (11731650_a_at) / RFU MAPK11 (11762145_a_at) / Fold change /veh MAPK11 (11762145_a_at) / RFU FIZ1 (11724087_x_at) / Fold change /veh FIZ1 (11724087_x_at) / RFU OASL (11726364_x_at) / Fold change /veh OASL (11726364_x_at) / RFU SOX15 (11748057_x_at) / Fold change /veh SOX15 (11748057_x_at) / RFU CD79A (11719716_a_at) / Fold change /veh CD79A (11719716_a_at) / RFU HIST1H1D (11736915_at) / Fold change /veh HIST1H1D (11736915_at) / RFU CASKIN2 (11723855_a_at) / Fold change /veh CASKIN2 (11723855_a_at) / RFU LOC730098 (11760151_x_at) / Fold change /veh LOC730098 (11760151_x_at) / RFU OR4N2 (11742367_at) / Fold change /veh OR4N2 (11742367_at) / RFU PRRT2 (11749266_a_at) / Fold change /veh PRRT2 (11749266_a_at) / RFU SNX32 (11753110_a_at) / Fold change /veh SNX32 (11753110_a_at) / RFU CDHR5 (11726645_a_at) / Fold change /veh CDHR5 (11726645_a_at) / RFU RCAN1 (11760418_a_at) / Fold change /veh RCAN1 (11760418_a_at) / RFU FAM167A (11723789_a_at) / Fold change /veh FAM167A (11723789_a_at) / RFU FAM26E (11764081_at) / Fold change /veh FAM26E (11764081_at) / RFU ISYNA1 (11749810_s_at) / Fold change /veh ISYNA1 (11749810_s_at) / RFU ACY1 (11761880_at) / Fold change /veh ACY1 (11761880_at) / RFU 11764098_at / Fold change /veh 11764098_at / RFU SAMD14 (11745864_x_at) / Fold change /veh SAMD14 (11745864_x_at) / RFU NPB (11741838_a_at) / Fold change /veh NPB (11741838_a_at) / RFU TMPRSS6 (11731388_a_at) / Fold change /veh TMPRSS6 (11731388_a_at) / RFU KRTAP10-2 (11738614_at) / Fold change /veh KRTAP10-2 (11738614_at) / RFU ARHGAP8 /// PRR5-ARHGAP8 (11727945_x_at) / Fold change /veh ARHGAP8 /// PRR5-ARHGAP8 (11727945_x_at) / RFU KRTAP5-7 /// NADSYN1 (11734609_at) / Fold change /veh KRTAP5-7 /// NADSYN1 (11734609_at) / RFU RASL12 (11751679_a_at) / Fold change /veh RASL12 (11751679_a_at) / RFU CDKN2B (11736163_a_at) / Fold change /veh CDKN2B (11736163_a_at) / RFU PRF1 (11729649_at) / Fold change /veh PRF1 (11729649_at) / RFU, ZNF638 /// ZNF638-IT1 / Fold change vs veh, ZNF638 /// ZNF638-IT1 / RFU, PANK3 / Fold change vs veh, PANK3 / RFU, SH3YL1 / Fold change vs veh, SH3YL1 / RFU, ZEB2 / Fold change vs veh, ZEB2 / RFU, NRIP1 / Fold change vs veh, NRIP1 / RFU, PTTG1IP / Fold change vs veh, PTTG1IP / RFU, CAPN2 / Fold change vs veh, CAPN2 / RFU, MED14 / Fold change vs veh, MED14 / RFU, SNORA58 / Fold change vs veh, SNORA58 / RFU, C1orf63 / Fold change vs veh, C1orf63 / RFU, LRRFIP1 / Fold change vs veh, LRRFIP1 / RFU, NDUFAF7 / Fold change vs veh, NDUFAF7 / RFU, SLC12A2 / Fold change vs veh, SLC12A2 / RFU, IBTK / Fold change vs veh, IBTK / RFU, ESF1 / Fold change vs veh, ESF1 / Fold change vs veh, TMEM50B / RFU, TAOK1 / Fold change vs veh, TAOK1 / RFU, ACBD3 / Fold change vs veh, ACBD3 / RFU, TMA16 / Fold change vs veh, TMA16 / RFU, RWDD3 / Fold change vs veh, RWDD3 / RFU, BCAT1 / Fold change vs veh, BCAT1 / RFU, EDEM3 / Fold change vs veh, EDEM3 / RFU, TMEM33 / Fold change vs veh, TMEM33 / RFU, WDR75 / Fold change vs veh, WDR75 / RFU, AHCTF1 / Fold change vs veh, AHCTF1 / RFU, TFRC / Fold change vs veh, TFRC / RFU, ZDHHC17 / Fold change vs veh, ZDHHC17 / RFU, NOM1 / Fold change vs veh, NOM1 / RFU, ARL8B / Fold change vs veh, ARL8B / RFU, ZBTB11 / Fold change vs veh, ZBTB11 / RFU, TAMM41 / Fold change vs veh, TAMM41 / RFU, KIAA1704 /// LOC100996395 / Fold change vs veh, KIAA1704 /// LOC100996395 / RFU, ING1 / Fold change vs veh, ING1 / RFU, TRMT61B / Fold change vs veh, TRMT61B / RFU, FUBP3 / Fold change vs veh, FUBP3 / RFU, TP53 / Fold change vs veh, TP53 / RFU, TNKS2 / Fold change vs veh, TNKS2 / RFU, ZFP14 / Fold change vs veh, ZFP14 / RFU, ACTR2 / Fold change vs veh, ACTR2 / RFU, PPP3R1 / Fold change vs veh, PPP3R1 / RFU, PIK3R1 / Fold change vs veh, PIK3R1 / RFU, HNRNPA1 / Fold change vs veh, HNRNPA1 / RFU, RNF170 / Fold change vs veh, RNF170 / RFU, ZNF28 / Fold change vs veh, ZNF28 / RFU, RNGTT / Fold change vs veh, RNGTT / RFU, OGT / Fold change vs veh, OGT / RFU, BRD1 / Fold change vs veh, BRD1 / RFU, MARS / Fold change vs veh, MARS / RFU, ZNF655 / Fold change vs veh, ZNF655 / RFU, FAHD1 / Fold change vs veh, FAHD1 / RFU, BDP1 / Fold change vs veh, BDP1 / RFU, LRRCC1 / Fold change vs veh, LRRCC1 / RFU, ARID1A / Fold change vs veh, ARID1A / RFU, ZNF146 / Fold change vs veh, ZNF146 / RFU, ZNF330 / Fold change vs veh, ZNF330 / RFU, GPN3 / Fold change vs veh, GPN3 / RFU, C9orf123 / Fold change vs veh, C9orf123 / RFU, N4BP2L2 / Fold change vs veh, N4BP2L2 / RFU, ARFIP1 / Fold change vs veh, ARFIP1 / RFU, FAM179B / Fold change vs veh, FAM179B / RFU, BCL10 / Fold change vs veh, BCL10 / RFU, UHRF1BP1L / Fold change vs veh, UHRF1BP1L / RFU, BET1 / Fold change vs veh, BET1 / RFU, CNOT2 / Fold change vs veh, CNOT2 / RFU, ZNF268 / Fold change vs veh, ZNF268 / Fold change vs veh, ZNF507 / RFU, DGCR2 / Fold change vs veh, DGCR2 / RFU, WDSUB1 / Fold change vs veh, WDSUB1 / Fold change vs veh, HSP90B1 /// MIR3652 / RFU, ADSS / Fold change vs veh, ADSS / RFU, GK / Fold change vs veh, GK / RFU, ZNF148 / Fold change vs veh, ZNF148 / RFU, TAF9 / Fold change vs veh, TAF9 / RFU, SLC1A5 / Fold change vs veh, SLC1A5 / RFU, SLMO2 / Fold change vs veh, SLMO2 / RFU, ABCC4 / Fold change vs veh, ABCC4 / RFU, LOC101060439 /// RAP1B / Fold change vs veh, LOC101060439 /// RAP1B / RFU, RFX7 / Fold change vs veh, RFX7 / RFU, GTPBP10 / Fold change vs veh, GTPBP10 / RFU, CNEP1R1 / Fold change vs veh, CNEP1R1 / RFU, BIVM-ERCC5 /// ERCC5 / Fold change vs veh, BIVM-ERCC5 /// ERCC5 / RFU, ILF3 / Fold change vs veh, ILF3 / RFU 11762660_at / Fold change /veh 11762660_at / RFU VCAN (11757783_s_at) / Fold change /veh VCAN (11757783_s_at) / RFU DDX43 (11728927_at) / Fold change /veh DDX43 (11728927_at) / RFU KRT8 (11758188_x_at) / Fold change /veh KRT8 (11758188_x_at) / RFU NKD1 (11759106_at) / Fold change /veh NKD1 (11759106_at) / RFU SRD5A1 (11742802_a_at) / Fold change /veh SRD5A1 (11742802_a_at) / RFU TPSAB1 /// TPSB2 (11721975_s_at) / Fold change /veh TPSAB1 /// TPSB2 (11721975_s_at) / RFU GSTM3 (11746129_a_at) / Fold change /veh GSTM3 (11746129_a_at) / RFU IL23R (11737362_x_at) / Fold change /veh IL23R (11737362_x_at) / RFU TMEM51 (11727254_a_at) / Fold change /veh TMEM51 (11727254_a_at) / RFU PIWIL2 (11732686_x_at) / Fold change /veh PIWIL2 (11732686_x_at) / RFU ORM1 (11744905_x_at) / Fold change /veh ORM1 (11744905_x_at) / RFU CCDC152 (11743942_at) / Fold change /veh CCDC152 (11743942_at) / RFU ECM1 (11717891_a_at) / Fold change /veh ECM1 (11717891_a_at) / RFU IL23R (11748794_a_at) / Fold change /veh IL23R (11748794_a_at) / RFU TNFAIP8L3 (11732012_x_at) / Fold change /veh TNFAIP8L3 (11732012_x_at) / RFU MBOAT4 (11741988_at) / Fold change /veh MBOAT4 (11741988_at) / RFU 11764193_at / Fold change /veh 11764193_at / RFU TMEM53 (11763286_at) / Fold change /veh TMEM53 (11763286_at) / RFU MAGEB2 (11727129_at) / Fold change /veh MAGEB2 (11727129_at) / RFU TMEM200A (11744735_a_at) / Fold change /veh TMEM200A (11744735_a_at) / RFU CCDC152 (11751479_a_at) / Fold change /veh CCDC152 (11751479_a_at) / RFU FAM211A (11726209_a_at) / Fold change /veh FAM211A (11726209_a_at) / RFU RGS16 (11746705_a_at) / Fold change /veh RGS16 (11746705_a_at) / RFU VCAN (11755009_s_at) / Fold change /veh VCAN (11755009_s_at) / RFU RHOB (11743442_s_at) / Fold change /veh RHOB (11743442_s_at) / RFU RGS16 (11720943_a_at) / Fold change /veh RGS16 (11720943_a_at) / RFU RGS16 (11720944_at) / Fold change /veh RGS16 (11720944_at) / RFU, VPS4B / Fold change vs veh, VPS4B / RFU, CREB1 / Fold change vs veh, CREB1 / RFU, DNAJC13 / Fold change vs veh, DNAJC13 / RFU, GNAQ / Fold change vs veh, GNAQ / RFU, CDK5R1 / Fold change vs veh, CDK5R1 / RFU, ZRANB3 / Fold change vs veh, ZRANB3 / RFU, CUL4A / Fold change vs veh, CUL4A / RFU, CCNY / Fold change vs veh, CCNY / RFU, UFL1 / Fold change vs veh, UFL1 / RFU, COG3 / Fold change vs veh, COG3 / RFU, DIAPH2 / Fold change vs veh, DIAPH2 / RFU, SKA2 / Fold change vs veh, SKA2 / RFU, AFF3 / Fold change vs veh, AFF3 / RFU, LMF1 / Fold change vs veh, LMF1 / RFU, IPO11 / Fold change vs veh, IPO11 / RFU, DFFB / Fold change vs veh, DFFB / RFU, FOXP1 / Fold change vs veh, FOXP1 / RFU, CARD8 / Fold change vs veh, CARD8 / RFU, STRN3 / Fold change vs veh, STRN3 / RFU, ADK / Fold change vs veh, ADK / RFU, RASSF2 / Fold change vs veh, RASSF2 / RFU, WIPF1 / Fold change vs veh, WIPF1 / RFU, LARP1B / Fold change vs veh, LARP1B / RFU, RASA1 / Fold change vs veh, RASA1 / RFU, RB1 / Fold change vs veh, RB1 / RFU, PPFIA1 / Fold change vs veh, PPFIA1 / RFU, MAT2A / Fold change vs veh, MAT2A / RFU, CCT5 / Fold change vs veh, CCT5 / RFU, WDR92 / Fold change vs veh, WDR92 / RFU, CUX1 / Fold change vs veh, CUX1 / RFU, TTC7A / Fold change vs veh, TTC7A / RFU, TMEM135 / Fold change vs veh, TMEM135 / RFU, DEPTOR / Fold change vs veh, DEPTOR / RFU, CPM / Fold change vs veh, CPM / RFU, DNAJB6 / Fold change vs veh, DNAJB6 / RFU, CACNA2D3 / Fold change vs veh, CACNA2D3 / RFU, DTX4 / Fold change vs veh, DTX4 / RFU, TFCP2 / Fold change vs veh, TFCP2 / RFU, GMCL1 /// GMCL1P1 / Fold change vs veh, GMCL1 /// GMCL1P1 / RFU, AEBP2 / Fold change vs veh, AEBP2 / RFU, SNHG1 /// SNORD22 /// SNORD25 /// SNORD26 /// SNORD27 /// SNORD28 /// SNORD29 /// SNORD31 / Fold change vs veh, SNHG1 /// SNORD22 /// SNORD25 /// SNORD26 /// SNORD27 /// SNORD28 /// SNORD29 /// SNORD31 / Fold change (Aza/veh), C12orf56 (ProbeSet 11735607_a_at) / Fold change (ACY-1035/veh), C12orf56 (ProbeSet 11735607_a_at) / Fold change (Aza/veh), FGFR1OP (ProbeSet 11751329_s_at) / Fold change (ACY-1035/veh), FGFR1OP (ProbeSet 11751329_s_at) / Fold change (Aza/veh), VPS36 (ProbeSet 11739960_a_at) / Fold change (ACY-1035/veh), VPS36 (ProbeSet 11739960_a_at) / RFU SYPL1 (11715823_x_at) / Fold change /veh SYPL1 (11715823_x_at) / RFU IGFBP7 (11715501_s_at) / Fold change /veh IGFBP7 (11715501_s_at) / RFU REEP3 (11722064_at) / Fold change /veh REEP3 (11722064_at) / RFU IGLL1 (11728026_x_at) / Fold change /veh IGLL1 (11728026_x_at): dose or concentration left out as unconfirmed. The settings on record: ProbeSet 11732165_x_at; LIST D.

In the case of `Nc1ncn([C@@H]2O[C@H](CO)[C@@H](O)[C@H]2O)c(=O)n1` [azacitidine], the “Fold change vs veh, LMF1” value was found to be 0.71.
